Target: Beta-2 adrenergic receptor (Rattus norvegicus) (UniProt P10608)
Assay: Agonistic activity against Beta-2 adrenergic receptor in rat uterus

Chain of Beta-2 adrenergic receptor (Rattus norvegicus) (P10608 whole entry, looked up): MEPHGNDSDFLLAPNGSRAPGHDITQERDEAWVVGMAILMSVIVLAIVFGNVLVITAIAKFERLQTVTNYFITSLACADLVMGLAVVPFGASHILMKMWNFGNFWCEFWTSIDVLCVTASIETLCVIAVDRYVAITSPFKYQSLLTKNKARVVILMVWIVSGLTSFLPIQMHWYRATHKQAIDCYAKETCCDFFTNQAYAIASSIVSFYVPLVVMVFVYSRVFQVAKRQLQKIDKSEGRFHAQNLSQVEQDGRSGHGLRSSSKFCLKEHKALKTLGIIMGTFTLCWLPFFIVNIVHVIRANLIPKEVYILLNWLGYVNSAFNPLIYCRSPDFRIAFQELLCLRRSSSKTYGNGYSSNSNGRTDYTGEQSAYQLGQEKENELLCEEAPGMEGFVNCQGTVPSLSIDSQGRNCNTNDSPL

IC50: > 10 µM
Compound: O=C(O)C1(C(=O)O)Oc2cc3c(cc2O1)C[C@@H](NC[C@H](O)c1cccc(Cl)c1)CCC3 [FR-165914]

Source: BindingDB's records for doi:10.1016/0960-894X(95)00483-A (1995)
